One assay has as its target T1, HLA-A*0201 (Homo sapiens, UniProt P04439, D140Y/D185E/D98H/E176V/E277Q/G131W/G231S/I119V/I121R/I166T/I218V/L300P/L318F/N151K/N90K/P208A/P217A/Q86G/Q94H/R138H/R169H/T345S).
T1 construct: Soluble MHC was dissolved in PBS containing 0.5 mg/ml bovine γ-globulin; made in house
In kind it is binding.

For assay [1], the system named is CD8+ T cells of HLA-A2+ human donors. It counts as cell-based.
The subject of assay [2] is splenocytes of WT-vaccinated HLA-A2 tg mice. In kind it is cell-based, mouse. More on the design: key to response compared with WT peptide control, mouse splenocytes: *: Lower response than WT peptide.
The target in another assay is T2, HLA-A*0301 (Homo sapiens, UniProt P04439).
T2 construct: Soluble MHC was dissolved in PBS containing 0.5 mg/ml bovine γ-globulin; made in house
It counts as binding.

Consider FMYSDFHF[2-AOC] [F19], for which, at HLA-A*0201, the “FP binding score, percentage inhibition of tracer peptide binding, 4h” value is 87% and the “FP binding score, percentage inhibition of tracer peptide binding, 24h” value (“FP binding score, percentage inhibition … 24h” below) was 86%. In addition, in assay [1], the “DC model: IFN-γ-positive CD8+ T cells, Average” value (shortened to “DC model … Average”) stood at 0.07 and the “rank by T cell activation, DC model” value is listed as “Lower 3”. Further, the “Mouse splenocytes (ex vivo assay), Average” value (“Mouse splenocytes … Average” for short) in assay [2] came to 62.

Turning to FMYSDFHF[CHA] [F49], on HLA-A*0201, the “FP binding score, percentage inhibition of tracer peptide binding, 4h” value is on record as 88% and the “FP binding score, percentage inhibition … 24h” value was 86%. Moreover, in assay [1], the “DC model … Average” value amounted to 0.18 and the “rank by T cell activation, DC model” value is reported as “Upper 3”. For the same substance, in assay [2], the “Mouse splenocytes … Average” value is 60 and the “rank by T cell activation, mouse splenocytes” value (from here on “rank … mouse splenocytes”) is given as “Lower 3”.

Consider FMYSDFHF[CSET] [F54], for which, on HLA-A*0201, the “FP binding score, percentage inhibition of tracer peptide binding, 4h” value is recorded as 82% and the “FP binding score, percentage inhibition … 24h” value is recorded as 80%. Also, in assay [1], the “DC model … Average” value worked out at 0.14 and the “rank by T cell activation, DC model” value is recorded as “Upper 3”. For the same substance, in assay [2], the “Mouse splenocytes … Average” value was found to be 78.

Consider FMYSDFHF[CpALA] [F52], for which, on HLA-A*0201, the “FP binding score, percentage inhibition of tracer peptide binding, 4h” value is 81% and the “FP binding score, percentage inhibition … 24h” value came out at 78%. Also, in assay [1], the “DC model … Average” value stood at 0.13. Also, the “Mouse splenocytes … Average” value in assay [2] is 79.

Regarding FMYSDFHF[HPG] [F63], on HLA-A*0201, the “FP binding score, percentage inhibition of tracer peptide binding, 4h” value came out at 81% and the “FP binding score, percentage inhibition … 24h” value worked out at 78%. For the same substance, the “DC model … Average” value in assay [1] is 0.08. In addition, in assay [2], the “Mouse splenocytes … Average” value is given as 83.

Consider F[2-AOC]LSTVLGV [N177], for which, on HLA-A*0201, the “FP binding score, percentage inhibition of tracer peptide binding, 4h” value came to 90% and the “FP binding score, percentage inhibition … 24h” value is recorded as 88%. Further, the “DC model … Average” value in assay [1] is reported as 0.04. In assay [2], the “Mouse splenocytes … Average” value is 46.

With F[2-AOC]YSDFHFI [F143], on HLA-A*0201, the “FP binding score, percentage inhibition of tracer peptide binding, 4h” value stood at 93% and the “FP binding score, percentage inhibition … 24h” value turned out to be 91%. In assay [2], the “Mouse splenocytes … Average” value turned out to be 92; the “rank … mouse splenocytes” value was “Upper 3”; the “response compared with WT peptide control, mouse splenocytes” value is “F143 ^*”.

F[2-AOC]YSDFHF[CHA] [F48]: at HLA-A*0201, the “FP binding score, percentage inhibition of tracer peptide binding, 4h” value amounted to 93% and the “FP binding score, percentage inhibition … 24h” value amounted to 92%. Besides, the “DC model … Average” value in assay [1] is on record as 0.11. Besides, the “Mouse splenocytes … Average” value in assay [2] was found to be 61.

On to F[2-AOC]YSDFHF[NLE] [F69], for which, at HLA-A*0201, the “FP binding score, percentage inhibition of tracer peptide binding, 4h” value amounted to 90% and the “FP binding score, percentage inhibition … 24h” value was 89%. Also, in assay [1], the “DC model … Average” value is recorded as 0.08 and the “rank by T cell activation, DC model” value was “Lower 3”. Moreover, the “Mouse splenocytes … Average” value in assay [2] was determined as 63.

GILGFV[BUTGLY]TL [G20]: on HLA-A*0201, the “FP binding score, percentage inhibition of tracer peptide binding, 4h” value is 82% and the “FP binding score, percentage inhibition … 24h” value came out at 79%. Also, in assay [1], the “DC model … Average” value was found to be 0.07 and the “rank by T cell activation, DC model” value is recorded as “Lower 3”. For the same substance, the “Mouse splenocytes … Average” value in assay [2] is 36.

In the case of NMLSTVLG[CpALA] [N122], at HLA-A*0201, the “FP binding score, percentage inhibition of tracer peptide binding, 4h” value is on record as 65% and the “FP binding score, percentage inhibition … 24h” value came out at 60%. Further, the “Mouse splenocytes … Average” value in assay [2] is on record as 128.

Regarding NM[2-AOC]STVLGV [N41], on HLA-A*0201, the “FP binding score, percentage inhibition of tracer peptide binding, 4h” value turned out to be 78% and the “FP binding score, percentage inhibition … 24h” value worked out at 73%. Besides, in assay [1], the “DC model … Average” value turned out to be 0.08 and the “rank by T cell activation, DC model” value was “Upper 3”. For the same substance, the “Mouse splenocytes … Average” value in assay [2] worked out at 5.

Take N[2-AOC]LSTVLGV [N40]: on HLA-A*0201, the “FP binding score, percentage inhibition of tracer peptide binding, 4h” value was 71% and the “FP binding score, percentage inhibition … 24h” value was found to be 67%. In addition, the “DC model … Average” value in assay [1] is on record as 0.06. For the same substance, in assay [2], the “Mouse splenocytes … Average” value is recorded as 375; the “rank … mouse splenocytes” value is listed as “Upper 3”; the “response compared with WT peptide control, mouse splenocytes” value is “N40 ^*”.

In the case of S[NVA][CpALA]FGGFTK [S96], at HLA-A*0301, the “FP binding score, percentage inhibition of tracer peptide binding, 4h” value is 76% and the “FP binding score, percentage inhibition … 24h” value worked out at 91%.

As to S[NVA][NLE]FGGFTK [S94], at HLA-A*0301, the “FP binding score, percentage inhibition of tracer peptide binding, 4h” value worked out at 80% and the “FP binding score, percentage inhibition … 24h” value is on record as 93%.

On to [2-AOC]MLSTVLGV [N39], for which, at HLA-A*0201, the “FP binding score, percentage inhibition of tracer peptide binding, 4h” value is on record as 68% and the “FP binding score, percentage inhibition … 24h” value turned out to be 63%. Also, the “DC model … Average” value in assay [1] is 0.05. Moreover, the “Mouse splenocytes … Average” value in assay [2] is recorded as 334.

Regarding [2-AOC]MYSDFHFI [F95], at HLA-A*0201, the “FP binding score, percentage inhibition of tracer peptide binding, 4h” value worked out at 82% and the “FP binding score, percentage inhibition … 24h” value stood at 80%. The “DC model … Average” value in assay [1] is given as 0.12. In assay [2], the “Mouse splenocytes … Average” value was 90.

Regarding [2-AOC][AHA]RGSVAHK [I17], at HLA-A*0301, the “FP binding score, percentage inhibition of tracer peptide binding, 4h” value is recorded as 61% and the “FP binding score, percentage inhibition … 24h” value worked out at 89%.

Consider [2-AOC][NLE]RGSVAHK [I60], for which, on HLA-A*0301, the “FP binding score, percentage inhibition of tracer peptide binding, 4h” value came to 72% and the “FP binding score, percentage inhibition … 24h” value is 91%.

On to [3-PYRA]ILGFVFT[2-AOC] [G29], for which, on HLA-A*0201, the “FP binding score, percentage inhibition of tracer peptide binding, 4h” value stood at 44% and the “FP binding score, percentage inhibition … 24h” value stood at 38%. Further, in assay [1], the “DC model … Average” value is reported as 0.12. For the same substance, the “Mouse splenocytes … Average” value in assay [2] worked out at 39.

For [AHA][NLE]RGSVAHK [I53], on HLA-A*0301, the “FP binding score, percentage inhibition of tracer peptide binding, 4h” value turned out to be 73% and the “FP binding score, percentage inhibition … 24h” value came out at 91%.

As to [BCA][2-AOC]YSDFHFI [F112], at HLA-A*0201, the “FP binding score, percentage inhibition of tracer peptide binding, 4h” value came to 92% and the “FP binding score, percentage inhibition … 24h” value is recorded as 91%. The “Mouse splenocytes … Average” value in assay [2] is 86.

As for [CSET][2-AOC]YSDFHFI [F118], on HLA-A*0201, the “FP binding score, percentage inhibition of tracer peptide binding, 4h” value was found to be 95% and the “FP binding score, percentage inhibition … 24h” value is 93%. For the same substance, in assay [2], the “Mouse splenocytes … Average” value is 81.

Take [CSME][AHA]RGSVAHK [I61]: at HLA-A*0301, the “FP binding score, percentage inhibition of tracer peptide binding, 4h” value is listed as 71% and the “FP binding score, percentage inhibition … 24h” value is on record as 90%.

Consider [OM-HS][2-AOC]LSTVLGV [N91], for which, at HLA-A*0201, the “FP binding score, percentage inhibition of tracer peptide binding, 4h” value is reported as 91% and the “FP binding score, percentage inhibition … 24h” value is 87%. In assay [2], the “Mouse splenocytes … Average” value is listed as 344.

As for [SOME]MLSTVLGV [N61], on HLA-A*0201, the “FP binding score, percentage inhibition of tracer peptide binding, 4h” value stood at 62% and the “FP binding score, percentage inhibition … 24h” value was determined as 54%. For the same substance, the “Mouse splenocytes … Average” value in assay [2] is listed as 348.

Regarding [THR-BZL][2-AOC]YSDFHFI [F141], at HLA-A*0201, the “FP binding score, percentage inhibition of tracer peptide binding, 4h” value is 94% and the “FP binding score, percentage inhibition … 24h” value came to 93%. For the same substance, in assay [2], the “Mouse splenocytes … Average” value is reported as 67.

The values above are taken from article PMC4917206, “Chemical Modification of Influenza CD8+ T-Cell Epitopes Enhances Their Immunogenicity Regardless of Immunodominance” (PLoS ONE, 2016).
